Experimental data from article PMC6120666 (The EMBO Journal, 2018).

What was measured:
Experiment in all cases: Drug affinity chromatography with c-ponatinib and LC-MS/MS (ponatinib interactome)
Assay type in all cases: binding
[1] = biological target: T1, proteins of U2OS cell lysate (Homo sapiens, UniProt P04049)
T1 construct: Proteins enriched by c-ponatinib from U2OS cell lysate; endogenous in cells; host or cells: U2OS cell lysate
Method in brief: (§1)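 U2OS cell lysate in NP-40 lysis buffer (2 mg protein per pulldown) was incubated with amine-derivatized NHS beads for 2 h at 4 °C. Bound proteins were washed, eluted with 100 mM formic acid, reduced, alkylated and trypsin-digested, then identified by nano-UPLC–MS/MS on Orbitrap instruments with a 60 min gradient.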

[2] = biological target: T2, proteins of U2OS cell lysate (Homo sapiens, UniProt Q9BWU1)
T2 construct: Proteins enriched by c-ponatinib from U2OS cell lysate; endogenous in cells; host or cells: U2OS cell lysate
T2 sequence (Q9BWU1 whole entry): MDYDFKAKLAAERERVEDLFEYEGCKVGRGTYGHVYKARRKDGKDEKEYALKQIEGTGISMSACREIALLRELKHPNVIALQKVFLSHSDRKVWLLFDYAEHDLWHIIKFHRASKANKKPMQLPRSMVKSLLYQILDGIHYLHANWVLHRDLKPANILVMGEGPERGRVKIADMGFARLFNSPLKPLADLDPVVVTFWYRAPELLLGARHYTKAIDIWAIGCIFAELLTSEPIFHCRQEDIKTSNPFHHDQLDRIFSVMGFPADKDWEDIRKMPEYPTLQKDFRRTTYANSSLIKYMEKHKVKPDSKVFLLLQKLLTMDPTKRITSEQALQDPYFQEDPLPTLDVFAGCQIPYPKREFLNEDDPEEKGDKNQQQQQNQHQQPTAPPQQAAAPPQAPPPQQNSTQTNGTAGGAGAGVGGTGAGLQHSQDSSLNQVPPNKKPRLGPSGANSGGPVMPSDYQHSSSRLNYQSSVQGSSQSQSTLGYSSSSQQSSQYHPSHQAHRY
Method in brief: as §1

[3] = biological target: T3, proteins of U2OS cell lysate (Homo sapiens, UniProt O00159)
T3 construct: Proteins enriched by c-ponatinib from U2OS cell lysate; endogenous in cells; host or cells: U2OS cell lysate
Method in brief: as §1

[4] = biological target: T4, proteins of U2OS cell lysate (Homo sapiens, UniProt O75369)
T4 construct: Proteins enriched by c-ponatinib from U2OS cell lysate; endogenous in cells; host or cells: U2OS cell lysate
Method in brief: as §1

[5] = biological target: T5, proteins of U2OS cell lysate (Homo sapiens, UniProt P12814)
T5 construct: Proteins enriched by c-ponatinib from U2OS cell lysate; endogenous in cells; host or cells: U2OS cell lysate
Method in brief: as §1

[6] = biological target: T6, proteins of U2OS cell lysate (Homo sapiens, UniProt P29597)
T6 construct: Proteins enriched by c-ponatinib from U2OS cell lysate; endogenous in cells; host or cells: U2OS cell lysate
Method in brief: as §1

[7] = biological target: T7, proteins of U2OS cell lysate (Homo sapiens, UniProt O75947)
T7 construct: Proteins enriched by c-ponatinib from U2OS cell lysate; endogenous in cells; host or cells: U2OS cell lysate
T7 sequence (O75947 whole entry): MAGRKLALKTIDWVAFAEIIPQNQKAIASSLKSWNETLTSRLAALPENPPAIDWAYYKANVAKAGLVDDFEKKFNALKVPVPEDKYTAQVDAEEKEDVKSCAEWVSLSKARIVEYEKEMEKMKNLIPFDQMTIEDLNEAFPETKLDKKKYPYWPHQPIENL
Method in brief: as §1

[8] = biological target: T8, proteins of U2OS cell lysate (Homo sapiens, UniProt P40227)
T8 construct: Proteins enriched by c-ponatinib from U2OS cell lysate; endogenous in cells; host or cells: U2OS cell lysate
Method in brief: as §1

[9] = biological target: T9, proteins of U2OS cell lysate (Homo sapiens, UniProt Q9UP83)
T9 construct: Proteins enriched by c-ponatinib from U2OS cell lysate; endogenous in cells; host or cells: U2OS cell lysate
Method in brief: as §1

[10] = biological target: T10, proteins of U2OS cell lysate (Homo sapiens, UniProt P17987)
T10 construct: Proteins enriched by c-ponatinib from U2OS cell lysate; endogenous in cells; host or cells: U2OS cell lysate
T10 sequence (P17987 whole entry): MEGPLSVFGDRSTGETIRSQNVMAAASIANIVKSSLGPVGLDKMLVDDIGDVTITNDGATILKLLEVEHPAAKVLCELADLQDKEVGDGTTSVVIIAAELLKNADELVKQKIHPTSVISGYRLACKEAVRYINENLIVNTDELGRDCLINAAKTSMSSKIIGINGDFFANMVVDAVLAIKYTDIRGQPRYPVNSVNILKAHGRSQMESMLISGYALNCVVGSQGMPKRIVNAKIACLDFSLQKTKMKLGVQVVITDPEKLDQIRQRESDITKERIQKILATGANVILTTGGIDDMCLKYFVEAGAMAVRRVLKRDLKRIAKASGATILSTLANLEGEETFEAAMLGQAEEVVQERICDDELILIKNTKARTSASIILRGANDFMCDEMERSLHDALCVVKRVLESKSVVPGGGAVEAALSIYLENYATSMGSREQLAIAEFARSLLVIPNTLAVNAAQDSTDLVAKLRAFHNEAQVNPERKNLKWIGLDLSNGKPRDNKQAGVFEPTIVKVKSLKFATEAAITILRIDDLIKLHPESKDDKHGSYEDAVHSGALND
Method in brief: as §1

[11] = biological target: T11, proteins of U2OS cell lysate (Homo sapiens, UniProt P62805)
T11 construct: Proteins enriched by c-ponatinib from U2OS cell lysate; endogenous in cells; host or cells: U2OS cell lysate
Method in brief: as §1

[12] = biological target: T12, proteins of U2OS cell lysate (Homo sapiens, UniProt Q99613)
T12 construct: Proteins enriched by c-ponatinib from U2OS cell lysate; endogenous in cells; host or cells: U2OS cell lysate
Method in brief: as §1

[13] = biological target: T13, proteins of U2OS cell lysate (Homo sapiens, UniProt O75533)
T13 construct: Proteins enriched by c-ponatinib from U2OS cell lysate; endogenous in cells; host or cells: U2OS cell lysate
T13 sequence (O75533 whole entry): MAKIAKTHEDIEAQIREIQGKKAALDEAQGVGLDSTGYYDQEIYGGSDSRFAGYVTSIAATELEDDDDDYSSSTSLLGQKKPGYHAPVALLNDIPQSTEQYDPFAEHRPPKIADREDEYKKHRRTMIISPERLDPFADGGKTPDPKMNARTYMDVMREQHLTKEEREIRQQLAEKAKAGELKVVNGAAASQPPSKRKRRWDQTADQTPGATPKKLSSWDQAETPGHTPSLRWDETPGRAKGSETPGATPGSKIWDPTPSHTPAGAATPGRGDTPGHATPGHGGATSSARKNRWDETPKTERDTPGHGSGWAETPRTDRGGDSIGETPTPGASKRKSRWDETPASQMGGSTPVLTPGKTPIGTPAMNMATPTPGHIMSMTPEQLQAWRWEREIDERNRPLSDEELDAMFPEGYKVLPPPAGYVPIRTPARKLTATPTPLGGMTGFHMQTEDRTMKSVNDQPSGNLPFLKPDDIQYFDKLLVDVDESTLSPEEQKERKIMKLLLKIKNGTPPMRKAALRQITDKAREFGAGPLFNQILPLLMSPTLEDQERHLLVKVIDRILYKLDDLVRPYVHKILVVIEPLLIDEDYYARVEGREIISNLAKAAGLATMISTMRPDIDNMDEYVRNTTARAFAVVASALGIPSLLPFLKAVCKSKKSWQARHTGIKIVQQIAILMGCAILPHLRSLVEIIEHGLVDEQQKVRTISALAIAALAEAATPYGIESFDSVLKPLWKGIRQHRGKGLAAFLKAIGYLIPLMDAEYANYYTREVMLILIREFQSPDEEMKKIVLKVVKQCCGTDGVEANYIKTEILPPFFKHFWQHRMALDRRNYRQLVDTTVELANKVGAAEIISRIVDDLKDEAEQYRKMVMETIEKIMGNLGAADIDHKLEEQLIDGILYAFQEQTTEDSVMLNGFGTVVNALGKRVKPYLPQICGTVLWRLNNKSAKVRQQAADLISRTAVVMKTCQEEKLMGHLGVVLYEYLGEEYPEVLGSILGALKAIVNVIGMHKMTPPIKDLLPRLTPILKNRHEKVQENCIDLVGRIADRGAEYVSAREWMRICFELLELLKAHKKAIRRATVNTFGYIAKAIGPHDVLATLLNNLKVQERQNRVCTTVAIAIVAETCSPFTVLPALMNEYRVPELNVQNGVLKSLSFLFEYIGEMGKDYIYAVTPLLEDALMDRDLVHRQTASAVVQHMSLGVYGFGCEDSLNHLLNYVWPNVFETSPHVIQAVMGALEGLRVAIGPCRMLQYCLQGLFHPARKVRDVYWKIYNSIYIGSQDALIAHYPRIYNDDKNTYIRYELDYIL
Method in brief: as §1

[14] = biological target: T14, proteins of U2OS cell lysate (Homo sapiens, UniProt P23396)
T14 construct: Proteins enriched by c-ponatinib from U2OS cell lysate; endogenous in cells; host or cells: U2OS cell lysate
Method in brief: as §1

[15] = biological target: T15, proteins of U2OS cell lysate (Homo sapiens, UniProt Q9NX63)
T15 construct: Proteins enriched by c-ponatinib from U2OS cell lysate; endogenous in cells; host or cells: U2OS cell lysate
T15 sequence (Q9NX63 whole entry): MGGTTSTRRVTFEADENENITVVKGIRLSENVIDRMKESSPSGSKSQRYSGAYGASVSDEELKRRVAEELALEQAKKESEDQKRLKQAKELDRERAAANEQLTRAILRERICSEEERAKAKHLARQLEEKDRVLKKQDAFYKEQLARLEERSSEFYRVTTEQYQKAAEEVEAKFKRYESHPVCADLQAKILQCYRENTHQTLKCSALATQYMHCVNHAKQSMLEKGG
Method in brief: as §1

[16] = biological target: T16, proteins of U2OS cell lysate (Homo sapiens, UniProt Q99832)
T16 construct: Proteins enriched by c-ponatinib from U2OS cell lysate; endogenous in cells; host or cells: U2OS cell lysate
T16 sequence (Q99832 whole entry): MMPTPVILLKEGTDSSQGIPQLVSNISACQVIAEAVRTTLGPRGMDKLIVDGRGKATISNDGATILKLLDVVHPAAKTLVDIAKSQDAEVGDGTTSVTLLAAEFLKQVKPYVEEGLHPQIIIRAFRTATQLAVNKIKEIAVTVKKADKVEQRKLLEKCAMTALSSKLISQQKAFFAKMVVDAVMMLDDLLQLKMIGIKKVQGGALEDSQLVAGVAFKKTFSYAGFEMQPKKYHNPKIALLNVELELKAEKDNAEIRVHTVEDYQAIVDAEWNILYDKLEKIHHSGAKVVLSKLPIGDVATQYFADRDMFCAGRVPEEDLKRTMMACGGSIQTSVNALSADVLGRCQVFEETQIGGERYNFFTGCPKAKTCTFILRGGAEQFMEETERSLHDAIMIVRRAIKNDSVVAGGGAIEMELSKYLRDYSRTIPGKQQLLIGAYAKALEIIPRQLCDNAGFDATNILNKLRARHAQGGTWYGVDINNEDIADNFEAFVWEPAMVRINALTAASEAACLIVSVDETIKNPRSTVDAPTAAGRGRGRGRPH
Method in brief: as §1

[17] = biological target: T17, proteins of U2OS cell lysate (Homo sapiens, UniProt P62263)
T17 construct: Proteins enriched by c-ponatinib from U2OS cell lysate; endogenous in cells; host or cells: U2OS cell lysate
Method in brief: as §1

[18] = biological target: T18, proteins of U2OS cell lysate (Homo sapiens, UniProt O75396)
T18 construct: Proteins enriched by c-ponatinib from U2OS cell lysate; endogenous in cells; host or cells: U2OS cell lysate
T18 sequence (O75396 whole entry): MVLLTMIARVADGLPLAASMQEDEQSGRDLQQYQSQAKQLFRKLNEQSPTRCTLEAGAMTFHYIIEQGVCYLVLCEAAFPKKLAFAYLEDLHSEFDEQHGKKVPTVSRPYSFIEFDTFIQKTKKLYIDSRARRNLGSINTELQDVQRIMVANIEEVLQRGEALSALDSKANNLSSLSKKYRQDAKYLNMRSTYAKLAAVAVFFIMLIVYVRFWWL
Method in brief: as §1

[19] = biological target: T19, proteins of U2OS cell lysate (Homo sapiens, UniProt P83436)
T19 construct: Proteins enriched by c-ponatinib from U2OS cell lysate; endogenous in cells; host or cells: U2OS cell lysate
T19 sequence (P83436 whole entry): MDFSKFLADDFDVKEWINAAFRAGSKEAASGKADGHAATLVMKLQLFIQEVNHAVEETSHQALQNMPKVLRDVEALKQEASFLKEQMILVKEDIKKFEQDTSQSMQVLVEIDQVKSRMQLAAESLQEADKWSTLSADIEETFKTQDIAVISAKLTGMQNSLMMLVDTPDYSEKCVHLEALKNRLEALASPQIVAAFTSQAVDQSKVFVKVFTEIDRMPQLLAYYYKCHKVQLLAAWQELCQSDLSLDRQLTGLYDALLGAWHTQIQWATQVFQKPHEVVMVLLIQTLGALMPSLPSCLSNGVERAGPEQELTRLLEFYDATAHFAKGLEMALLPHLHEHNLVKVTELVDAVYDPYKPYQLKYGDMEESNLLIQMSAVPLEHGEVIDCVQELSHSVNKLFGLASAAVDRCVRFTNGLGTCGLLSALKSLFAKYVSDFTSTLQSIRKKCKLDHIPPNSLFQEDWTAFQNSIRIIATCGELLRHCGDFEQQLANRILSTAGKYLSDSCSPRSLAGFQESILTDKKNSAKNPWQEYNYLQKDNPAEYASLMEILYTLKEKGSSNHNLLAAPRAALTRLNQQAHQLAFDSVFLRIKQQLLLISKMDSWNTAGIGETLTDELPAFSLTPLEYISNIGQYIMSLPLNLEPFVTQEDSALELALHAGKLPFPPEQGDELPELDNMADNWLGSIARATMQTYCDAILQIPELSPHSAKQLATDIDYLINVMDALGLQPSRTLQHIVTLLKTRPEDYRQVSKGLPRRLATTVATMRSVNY
Method in brief: as §1

T1 sequence (P04049 whole entry): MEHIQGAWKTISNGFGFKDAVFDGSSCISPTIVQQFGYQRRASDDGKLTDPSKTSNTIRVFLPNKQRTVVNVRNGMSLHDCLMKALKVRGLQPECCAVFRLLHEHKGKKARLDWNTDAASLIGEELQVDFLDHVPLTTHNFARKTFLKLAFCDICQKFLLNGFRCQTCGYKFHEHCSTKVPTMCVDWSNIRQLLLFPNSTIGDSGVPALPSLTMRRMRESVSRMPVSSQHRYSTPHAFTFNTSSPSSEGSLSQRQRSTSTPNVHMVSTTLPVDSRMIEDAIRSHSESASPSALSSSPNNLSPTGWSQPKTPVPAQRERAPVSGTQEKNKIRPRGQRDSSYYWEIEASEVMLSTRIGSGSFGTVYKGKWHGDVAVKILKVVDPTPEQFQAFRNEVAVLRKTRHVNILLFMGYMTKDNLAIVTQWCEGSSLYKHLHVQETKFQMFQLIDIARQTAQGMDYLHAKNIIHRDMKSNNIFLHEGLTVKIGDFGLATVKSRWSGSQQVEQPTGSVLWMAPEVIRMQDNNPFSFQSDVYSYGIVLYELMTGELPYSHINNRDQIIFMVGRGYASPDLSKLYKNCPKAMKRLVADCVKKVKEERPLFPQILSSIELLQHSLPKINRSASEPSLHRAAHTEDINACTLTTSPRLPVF

For `Cc1ccc(C(=O)Nc2ccc(CN3CCN(C)CC3)c(C(F)(F)F)c2)cc1C#Cc1cnc2cccnn12` [PON], the “Average LFQ PON_WT” value ([1]; RAF1, RAF proto-oncogene serine/threonine-protein kinase) was 21.5684, the “Average LFQ PON_WT” value ([2]; CDK19, Cyclin-dependent kinase 19) was 21.5435 and the “Average LFQ PON_WT” value ([3]; MYO1C, Unconventional myosin-Ic) was 21.7408. For the same molecule, the “Average LFQ PON_WT” value ([4]; FLNB, Filamin-B) was 21.8609, the “Average LFQ PON_WT” value ([5]; ACTN1, Alpha-actinin-1) was 22.3393 and the “Average LFQ PON_WT” value ([6]; TYK2, Non-receptor tyrosine-protein kinase TYK2) was 22.5645. The “Average LFQ PON_WT” value ([7]; ATP5H, ATP synthase subunit d, mitochondrial) was 23.183, the “Average LFQ PON_WT” value ([8]; CCT6A, T-complex protein 1 subunit zeta) was 22.8673 and the “Average LFQ PON_WT” value ([9]; COG5, Conserved oligomeric Golgi complex subunit 5) was 22.09. The “Average LFQ PON_WT” value ([10]; TCP1, T-complex protein 1 subunit alpha) was 22.697, the “Average LFQ PON_WT” value ([11]; HIST1H4A, Histone H4) was 22.1811 and the “Average LFQ PON_WT” value ([12]; EIF3C;EIF3CL, Eukaryotic translation initiation factor 3 subunit C) was 21.9967. The “Average LFQ PON_WT” value ([13]; SF3B1, Splicing factor 3B subunit 1) was 22.352, the “Average LFQ PON_WT” value ([14]; RPS3, 40S ribosomal protein S3) was 21.7356 and the “Average LFQ PON_WT” value ([15]; CHCHD3, Coiled-coil-helix-coiled-coil-helix domain-containing protein 3, mitochondrial) was 22.5984. For the same molecule, the “Average LFQ PON_WT” value ([16]; CCT7, T-complex protein 1 subunit eta) was 22.9495, the “Average LFQ PON_WT” value ([17]; RPS14, 40S ribosomal protein S14) was 22.2776 and the “Average LFQ PON_WT” value ([18]; SEC22B, Vesicle-trafficking protein SEC22b) was 22.7294. For the same molecule, the “Average LFQ PON_WT” value ([19]; COG7, Conserved oligomeric Golgi complex subunit 7) was 22.1578.

In the case of `Cc1ccc(C(=O)Nc2ccc(CN3CCN(CCCN)CC3)c(C(F)(F)F)c2)cc1C#Cc1cnc2cccnn12` [c-ponatinib, reference compound], the “Average LFQ intensity” value ([1]; captured protein RAF1, Rank 223) is reported as 21.5685, the “Average LFQ intensity” value ([2]; captured protein CDK19, Rank 226) is reported as 21.5435 and the “Average LFQ intensity” value ([3]; captured protein MYO1C, Rank 209) is reported as 21.7408. For the same molecule, the “Average LFQ intensity” value ([4]; captured protein FLNB, Rank 198) was 21.8609, the “Average LFQ intensity” value ([5]; captured protein ACTN1, Rank 166) was 22.3393 and the “Average LFQ intensity” value ([6]; captured protein TYK2, Rank 155) was 22.5645. For the same molecule, the “Average LFQ intensity” value ([7]; captured protein ATP5H, Rank 115) was 23.183, the “Average LFQ intensity” value ([8]; captured protein CCT6A, Rank 133) was 22.8673 and the “Average LFQ intensity” value ([9]; captured protein COG5, Rank 186) was 22.09. For the same molecule, the “Average LFQ intensity” value ([10]; captured protein TCP1, Rank 149) was 22.697, the “Average LFQ intensity” value ([11]; captured protein HIST1H4A, Rank 180) was 22.1811 and the “Average LFQ intensity” value ([12]; captured protein EIF3C;EIF3CL, Rank 191) was 21.9967. The “Average LFQ intensity” value ([13]; captured protein SF3B1, Rank 165) was 22.352, the “Average LFQ intensity” value ([14]; captured protein RPS3, Rank 210) was 21.7357 and the “Average LFQ intensity” value ([15]; captured protein CHCHD3, Rank 154) was 22.5984. The “Average LFQ intensity” value ([16]; captured protein CCT7, Rank 127) was 22.9495, the “Average LFQ intensity” value ([17]; captured protein RPS14, Rank 169) was 22.2776 and the “Average LFQ intensity” value ([18]; captured protein SEC22B, Rank 146) was 22.7294. The “Average LFQ intensity” value ([19]; captured protein COG7, Rank 182) was 22.1578.
